From patent US7148249B2, “Indolinones substituted by heterocycles, the preparation thereof and their use as medicaments” (Boehringer Ingelheim Pharma GmbH & Co. KG, priority 2002, dated 2006)

What was measured:
[1] = test system: Human umbilical endothelial cells (HUVEC); test: Inhibition of VEGF165-stimulated HUVEC proliferation (3H-thymidine incorporation); type: cell-based; conditions: Homo sapiens; HUVEC proliferation stimulated with 5 ng/ml VEGF165 and 10 μg/ml heparin; 76 h incubation + 16 h 3H-thymidine
Description: Human umbilical endothelial cells (HUVEC) were cultivated in IMDM (Gibco BRL), supplemented with 10% foetal calf serum (FBS) (Sigma), 50 μM of β-mercaptoethanol (Fluka), standard antibiotics, 15 μg/ml of endothelial cell growth factor (ECGS, Collaborative Biomedical Products) and 100 μg/ml of heparin (Sigma) on gelatine-coated culture dishes (0.2% gelatine, Sigma) at 37° C., under 5% CO2 in a water-saturated atmosphere.
In order to investigate the inhibitory activity of the compounds according to the invention the cells were “starved” for 16 hours, i.e. kept in culture medium without growth factors (ECGS+heparin). The cells were detached from the culture dishes using trypsin/EDTA and washed once in serum-containing medium. Then they were seeded out in amounts of 2.5×10^3 cells per well.
The proliferation of the cells was stimulated with 5 ng/ml of VEGF165 (vascular endothelial growth factor; H. Weich, GBF Braunschweig) and 10 μg/ml of heparin. As a control, 6 wells in each dish were not stimulated.
The compounds according to the invention were dissolved in 100% dimethylsulphoxide and added to the cultures in various dilutions as triple measurements, the maximum dimethylsulphoxide concentration being 0.3%.
The cells were incubated for 76 hours at 37° C., then for a further 16 hours ^3H-thymidine (0.1 μCi/well, Amersham) was added in order to determine the DNA synthesis. Then the radioactively labelled cells were immobilised on filter mats and the radioactivity incorporated was measured in a β-counter. In order to determine the inhibitory activity of the compounds according to the invention the mean value of the non-stimulated cells was subtracted from the mean value of the factor-stimulated cells (in the presence or absence of the compounds according to the invention).
The relative cell proliferation was calculated as a percentage of the control (HUVEC without inhibitor) and the concentration of active substance which inhibits the proliferation of the cells by 50% (IC50) was determined.

| melting point | Structure (SMILES) | IC50 [1] |
| --- | --- | --- |
| 273 to 277 °C (dec.) | CN(C)Cc1ccc(N/C(=C2\C(=O)Nc3ccccc32)c2ccc3nc[nH]c3c2)cc1 [(ag), 3-(Z)-{1-[4-(dimethylaminomethyl)-phenylamino]-1-(benzimidazol-5-yl)-methylene}-2-indolinone] | 31 nM |
| 277 to 279 °C | O=C1Nc2cc(Cl)ccc2/C1=C(/Nc1ccc(CN2CCCC2)cc1)c1ccc2nc[nH]c2c1 [(ai), 3-(Z)-{1-[4-(pyrrolidin-1-yl-methyl)-phenylamino]-1-(benzimidazol-5-yl)-methylene}-6-chloro-2-indolinone] | 3 nM |
| 221 to 222 °C | CN(C)CC(=O)N(C)c1ccc(N/C(=C2\C(=O)Nc3ccccc32)c2ccc3c(c2)OCO3)cc1 [(aj), 3-(Z)-{1-(4-[N-methyl-N-(dimethylaminomethylcarbonyl)-amino]-phenylamino)-1-(3,4-methylenedioxyphenyl)-methylene}-2-indolinone] | 13 nM |
| 270 °C | CN(C)CC(=O)N(C)c1ccc(N/C(=C2\C(=O)Nc3cc(Cl)ccc32)c2ccc3c(c2)ncn3C)cc1 [(ak), 3-(Z)-{1-(4-[N-methyl-N-(dimethylaminomethylcarbonyl)-amino]-phenylamino)-1-(1-methyl-benzimidazol-5-yl)-methylene}-6-chloro-2-indolinone] | 30 nM |
| 228 to 232 °C | CCCS(=O)(=O)N(CCN(C)C)c1ccc(N/C(=C2\C(=O)Nc3cc(Cl)ccc32)c2ccncc2)cc1 [(ax), 3-(Z)-{1-(4-[N-(propanesulphonyl)-N-(2-dimethylaminoethyl)-amino]-phenylamino)-1-(4-pyridyl)-methylene}-6-chloro-2-indolinone] | 37 nM |
| 295 to 297 °C (dec.) | Cc1nc2ccc(/C(Nc3ccc(CN4CCCC4)cc3)=C3/C(=O)Nc4cc(Cl)ccc43)cc2[nH]1 [(ay), 3-(Z)-{1-[4-(pyrrolidin-1-yl-methyl)-phenylamino]-1-(2-methyl-benzimidazol-5-yl)-methylene}-6-chloro-2-indolinone] | 19 nM |
| 288 °C (dec.) | CN(C)Cc1ccc(N/C(=C2\C(=O)Nc3cc(Cl)ccc32)c2ccc3c(c2)ncn3C)cc1 [(f), 3-(Z)-{1-[4-(dimethylaminomethyl)-phenylamino]-1-(1-methyl-benzimidazol-5-yl)-methylene}-6-chloro-2-indolinone] | 2 nM |
| 153 to 154 °C | CCNCc1ccc(N/C(=C2\C(=O)Nc3cc(F)ccc32)c2ccc3c(c2)OCCO3)cc1 [(l), 3-(Z)-{1-[4-(ethylaminomethyl)-phenylamino]-1-(3,4-ethylenedioxyphenyl)-methylene}-6-fluoro-2-indolinone] | 10 nM |
| 266 °C | CCNCc1ccc(N/C(=C2\C(=O)Nc3cc(C(=O)OC)ccc32)c2ccc3c(c2)OCCO3)cc1 [(u), 3-(Z)-{1-(4-[ethylamino-methyl]-phenylamino)-1-(3,4-ethylenedioxyphenyl)-methylene}-6-methoxycarbonyl-2-indolinone] | 0.8 nM |
| 271 to 273 °C | COC(=O)c1ccc2c(c1)NC(=O)/C2=C(\Nc1ccc(CN2CCN(C)CC2)cc1)c1ccc2c(c1)OCCO2 [(v), 3-(Z)-{1-(4-[4-methylpiperazin-1-yl-methyl]-phenylamino)-1-(3,4-ethylenedioxy-phenyl)-methylene}-6-methoxycarbonyl-2-indolinone] | 1 nM |
| 204 to 205 °C | CCC(=O)N(CCCN(C)C)c1ccc(N/C(=C2\C(=O)Nc3ccccc32)c2coc(N(Cc3ccccc3)Cc3ccccc3)n2)cc1 [Example 1.0, 3-(Z)-[1-{4-[N-propionyl-N-(3-dimethylamino-propyl)-amino]-phenylamino}-1-(2-dibenzylamino-4-oxazolyl)-methylene]-2-indolinone] | – |
| 198 to 199 °C | CN(C)CC(=O)N(C)c1ccc(N/C(=C2\C(=O)Nc3ccccc32)c2cnccn2)cc1 [Example 2.0, 3-(Z)-{1-[4-(N-dimethylaminomethylcarbonyl-N-methyl-amino)-phenylamino]-1-(2-pyrazinyl)-methylene}-2-indolinone] | – |
| 274 to 276 °C | CN(C)CC(=O)N(C)c1ccc(N/C(=C2\C(=O)Nc3cc(Cl)ccc32)c2ccncc2)cc1 [Example 3.0, 6-Chloro-3-(Z)-[1-(4-{N-(dimethylaminomethylcarbonyl)-N-methyl-amino}-phenyl-amino)-1-(4-pyridyl)-methylene]-2-indolinone] | – |
| 255 to 260 °C | CN1CCC(N/C(=C2\C(=O)Nc3ccccc32)c2ccoc2)CC1 [Example 6.0, 3-(Z)-[1-(1-methylpiperidin-4-ylamino)-1-(3-furyl)-methylene]-2-indolinone] | – |
| 172 °C | CNC(=O)c1ccc2c(c1)NC(=O)/C2=C(\Nc1ccc(CN2CCN(C)CC2)cc1)c1ccc2c(c1)OCCO2 [Example 10.0, 6-methylaminocarbonyl-3-(Z)-{1-[4-(1-methylpiperazin-4-yl-methyl)-phenylamino]-1-(3,4-ethylenedioxyphenyl)-methylene}-2-indolinone] | – |
